Columns and labels:
[1] = biological target: GDP-bound HRAS wild-type protein (Homo sapiens, UniProt P01112); assay: Binding to HRAS by surface plasmon resonance (SPR), Single Cycle Kinetics; details: KD ratio, GDP-bound HRAS wild-type vs GDP-bound KRAS wild-type, SPR
[2] = biological target: GDP-bound NRAS wild-type protein (Homo sapiens, UniProt P01111); assay: Binding to NRAS by surface plasmon resonance (SPR), Single Cycle Kinetics; details: KD ratio, GDP-bound NRAS wild-type vs GDP-bound KRAS wild-type, SPR
Sequence of GDP-bound NRAS wild-type protein (P01111 whole entry): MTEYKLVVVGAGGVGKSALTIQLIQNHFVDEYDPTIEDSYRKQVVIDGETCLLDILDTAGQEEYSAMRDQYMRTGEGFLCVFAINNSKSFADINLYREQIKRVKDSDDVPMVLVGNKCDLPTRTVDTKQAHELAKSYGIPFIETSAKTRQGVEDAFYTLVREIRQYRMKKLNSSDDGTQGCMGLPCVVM

Sequence of GDP-bound HRAS wild-type protein (P01112 whole entry): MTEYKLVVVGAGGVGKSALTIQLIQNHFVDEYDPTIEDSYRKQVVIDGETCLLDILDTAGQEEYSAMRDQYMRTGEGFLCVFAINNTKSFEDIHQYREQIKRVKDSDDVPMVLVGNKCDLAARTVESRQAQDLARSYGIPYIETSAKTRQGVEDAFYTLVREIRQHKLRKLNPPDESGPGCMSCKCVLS

SMILES	HRAS/KRAS (ratio of KD value for HRAS to KD value for KRAS) [1]	NRAS/KRAS (ratio of KD value for NRAS to KD value for KRAS) [2]
CC[C@H](C)[C@@H]1NC(=O)[C@H](CC(F)F)N(C)C(=O)C[C@@H](C(=O)N(C)C)N(C)C(=O)[C@H](C2CCCC2)N(C)C(=O)C2(CC(C)(C)C2)NC(=O)[C@@H]2C[C@H](C)CN2C(=O)[C@H](CCc2cc(F)c(C(F)(F)F)c(F)c2)NC(=O)CN(C)C(=O)[C@H](Cc2ccc(C(F)(F)F)cc2)N2CC/C=C\C[C@@H](C2=O)N(C)C(=O)CN(C)C1=O [PP1658]	A (a compound having 10 or more and less than 20 is denoted as A)	A (a compound having 10 or more and less than 20 is denoted as A)
CCCC[C@H]1C(=O)N[C@@H]([C@@H](C)CC)C(=O)N(C)CC(=O)N(C)[C@H]2C/C=C\CCN(C2=O)[C@@H](Cc2ccc(C(F)(F)F)cc2)C(=O)N(C)CC(=O)N[C@@H](CCc2cc(F)c(C(F)(F)F)c(F)c2)C(=O)N2C[C@@H](C)C[C@H]2C(=O)NC2(CC(C)(C)C2)C(=O)N(C)[C@@H](C2CCCC2)C(=O)N(C)[C@H](C(=O)N(C)C)CC(=O)N1C [PP1661]	A (a compound having 10 or more and less than 20 is denoted as A)	A (a compound having 10 or more and less than 20 is denoted as A)
CC[C@H](C)[C@@H]1NC(=O)[C@H](CC(C)C)N(C)C(=O)C[C@@H](C(=O)N(C)C)N(C)C(=O)[C@H](C2CCCC2)N(C)C(=O)C2(CC(C)(C)C2)NC(=O)[C@@H]2C[C@H](C)CN2C(=O)[C@H](CCc2cc(F)c(C(F)(F)F)c(F)c2)NC(=O)CN(C)C(=O)[C@H](Cc2ccc(C(F)(F)F)cc2)N2CC/C=C\C[C@@H](C2=O)N(C)C(=O)CN(C)C1=O [PP1662]	B (a compound having 3 or more and less than 10 is denoted as B)	A (a compound having 10 or more and less than 20 is denoted as A)
CCCN(C)C(=O)[C@@H]1CC(=O)N(C)[C@@H](C)C(=O)N[C@@H]([C@@H](C)CC)C(=O)N(C)CC(=O)N(C)[C@H]2C/C=C\CCN(C2=O)[C@@H](Cc2ccc(C(F)(F)F)cc2)C(=O)N(C)CC(=O)N[C@@H](CCc2cc(F)c(C(F)(F)F)c(F)c2)C(=O)N2C[C@H](F)C[C@H]2C(=O)NC2(CC(C)(C)C2)C(=O)N(C)[C@@H](C2CCCC2)C(=O)N1C [PP1663]	A (a compound having 10 or more and less than 20 is denoted as A)	AA (a compound having 20 or more is denoted as AA)
CCCN(C)C(=O)[C@@H]1CC(=O)N(C)[C@@H](CC2CC2)C(=O)N[C@@H]([C@@H](C)CC)C(=O)N(C)CC(=O)N(C)[C@H]2C/C=C\CCN(C2=O)[C@@H](Cc2ccc(C(F)(F)F)cc2)C(=O)N(C)CC(=O)N[C@@H](CCc2cc(F)c(C(F)(F)F)c(F)c2)C(=O)N2C[C@H](F)C[C@H]2C(=O)NC2(CC(C)(C)C2)C(=O)N(C)[C@@H](C2CCCC2)C(=O)N1C [PP1665]	A (a compound having 10 or more and less than 20 is denoted as A)	AA (a compound having 20 or more is denoted as AA)
CCCN(C)C(=O)[C@@H]1CC(=O)N(C)[C@@H](C)C(=O)N[C@@H]([C@@H](C)CC)C(=O)N(C)CC(=O)N(C)[C@H]2C/C=C\CCN(C2=O)[C@@H](Cc2ccc(C(F)(F)F)cc2)C(=O)N(C)CC(=O)N[C@@H](CCc2cc(F)c(C(F)(F)F)c(F)c2)C(=O)N2C[C@H](OCC)C[C@H]2C(=O)NC2(CCC2)C(=O)N(C)[C@@H](C2CCCC2)C(=O)N1C [PP1666]	A (a compound having 10 or more and less than 20 is denoted as A)	A (a compound having 10 or more and less than 20 is denoted as A)
CCO[C@@H]1C[C@H]2C(=O)NC3(CCC3)C(=O)N(C)[C@@H](C3CCCC3)C(=O)N(C)[C@H](C(=O)N(C)CC)CC(=O)N(C)[C@@H](CC3CCC3)C(=O)N[C@@H]([C@@H](C)CC)C(=O)N(C)CC(=O)N(C)[C@H]3C/C=C\CCN(C3=O)[C@@H](Cc3ccc(C(F)(F)F)cc3)C(=O)N(C)CC(=O)N[C@@H](CCc3cc(F)c(C(F)(F)F)c(F)c3)C(=O)N2C1 [PP1667]	A (a compound having 10 or more and less than 20 is denoted as A)	A (a compound having 10 or more and less than 20 is denoted as A)
CCCOC[C@H]1C(=O)N[C@@H]([C@@H](C)CC)C(=O)N(C)CC(=O)N(C)[C@H]2C/C=C\CCN(C2=O)[C@@H](Cc2ccc(C(F)(F)F)cc2)C(=O)N(C)CC(=O)N[C@@H](CCc2cc(F)c(C(F)(F)F)c(F)c2)C(=O)N2C[C@H](OCC)C[C@H]2C(=O)NC2(CCC2)C(=O)N(C)[C@@H](C2CCCC2)C(=O)N(C)[C@H](C(=O)N(C)CCC)CC(=O)N1C [PP1668]	A (a compound having 10 or more and less than 20 is denoted as A)	A (a compound having 10 or more and less than 20 is denoted as A)
CCCN(C)C(=O)[C@@H]1CC(=O)N(C)[C@@H](CC)C(=O)N[C@@H]([C@@H](C)CC)C(=O)N(C)CC(=O)N(C)[C@H]2C/C=C\CCN(C2=O)[C@@H](Cc2ccc(C(F)(F)F)cc2)C(=O)N(C)CC(=O)N[C@@H](CCc2cc(F)c(C(F)(F)F)c(F)c2)C(=O)N2C[C@H](OCC)C[C@H]2C(=O)NC2(CC(C)(C)C2)C(=O)N(C)[C@@H](C2CCCC2)C(=O)N1C [PP1670]	A (a compound having 10 or more and less than 20 is denoted as A)	A (a compound having 10 or more and less than 20 is denoted as A)
CCO[C@@H]1C[C@H]2C(=O)NC3(CC(C)(C)C3)C(=O)N(C)[C@@H](C3CCCC3)C(=O)N(C)[C@H](C(=O)N(C)CC)CC(=O)N(C)[C@@H](COC)C(=O)N[C@@H]([C@@H](C)CC)C(=O)N(C)CC(=O)N(C)[C@H]3C/C=C\CCN(C3=O)[C@@H](Cc3ccc(C(F)(F)F)cc3)C(=O)N(C)CC(=O)N[C@@H](CCc3cc(F)c(C(F)(F)F)c(F)c3)C(=O)N2C1 [PP1671]	A (a compound having 10 or more and less than 20 is denoted as A)	A (a compound having 10 or more and less than 20 is denoted as A)
CCCN(C)C(=O)[C@@H]1CC(=O)N(C)[C@@H](COC)C(=O)N[C@@H]([C@@H](C)CC)C(=O)N(C)CC(=O)N(C)[C@H]2C/C=C\CCN(C2=O)[C@@H](Cc2ccc(C(F)(F)F)cc2)C(=O)N(C)CC(=O)N[C@@H](CCc2cc(F)c(C(F)(F)F)c(F)c2)C(=O)N2C[C@H](OCC)C[C@H]2C(=O)NC2(CC(C)(C)C2)C(=O)N(C)[C@@H](C2CCCC2)C(=O)N1C [PP1672]	A (a compound having 10 or more and less than 20 is denoted as A)	A (a compound having 10 or more and less than 20 is denoted as A)
CCCOC[C@H]1C(=O)N[C@@H]([C@@H](C)CC)C(=O)N(C)CC(=O)N(C)[C@H]2C/C=C\CCN(C2=O)[C@@H](Cc2ccc(C(F)(F)F)cc2)C(=O)N(C)CC(=O)N[C@@H](CCc2cc(F)c(C(F)(F)F)c(F)c2)C(=O)N2C[C@H](OCC)C[C@H]2C(=O)NC2(CC(C)(C)C2)C(=O)N(C)[C@@H](C2CCCC2)C(=O)N(C)[C@H](C(=O)N(C)CCC)CC(=O)N1C [PP1673]	A (a compound having 10 or more and less than 20 is denoted as A)	A (a compound having 10 or more and less than 20 is denoted as A)
CCO[C@@H]1C[C@H]2C(=O)NC3(CC(C)(C)C3)C(=O)N(C)[C@@H](C3CCCC3)C(=O)N(C)[C@H](C(=O)N(C)C)CC(=O)N(C)[C@@H](C)C(=O)N[C@@H]([C@@H](C)CC)C(=O)N(C)CC(=O)N(C)[C@H]3C/C=C\CCN(C3=O)[C@@H](Cc3ccc(C(F)(F)F)cc3)C(=O)N(C)CC(=O)N[C@@H](CCc3ccc(C(F)(F)F)c(OC)c3)C(=O)N2C1 [PP1674]	A (a compound having 10 or more and less than 20 is denoted as A)	A (a compound having 10 or more and less than 20 is denoted as A)
CCO[C@@H]1C[C@H]2C(=O)NC3(CC(C)(C)C3)C(=O)N(C)[C@@H](C3CCCC3)C(=O)N(C)[C@H](C(=O)N(C)C)CC(=O)N(C)[C@@H](CC(F)(F)F)C(=O)N[C@@H]([C@@H](C)CC)C(=O)N(C)CC(=O)N(C)[C@H]3C/C=C\CCN(C3=O)[C@@H](Cc3ccc(C(F)(F)F)cc3)C(=O)N(C)CC(=O)N[C@@H](CCc3ccc(C(F)(F)F)c(OC)c3)C(=O)N2C1 [PP1675]	B (a compound having 3 or more and less than 10 is denoted as B)	A (a compound having 10 or more and less than 20 is denoted as A)
CCO[C@@H]1C[C@H]2C(=O)NC3(CC(C)(C)C3)C(=O)N(C)[C@@H](C3CCCC3)C(=O)N(C)[C@H](C(=O)N(C)CC)CC(=O)N(C)[C@@H](COC)C(=O)N[C@@H]([C@@H](C)CC)C(=O)N(C)CC(=O)N(C)[C@H]3C/C=C\CCN(C3=O)[C@@H](Cc3ccc(C(F)(F)F)cc3)C(=O)N(C)CC(=O)N[C@@H](CCc3ccc(C(F)(F)F)c(OC)c3)C(=O)N2C1 [PP1679]	A (a compound having 10 or more and less than 20 is denoted as A)	A (a compound having 10 or more and less than 20 is denoted as A)
CC[C@H](C)[C@@H]1NC(=O)[C@H](CC(F)(F)F)N(C)C(=O)C[C@@H](C(=O)N(C)C)N(C)C(=O)[C@H](C2CCCC2)N(C)C(=O)C2(CC(C)(C)C2)NC(=O)[C@@H]2C[C@H](C)CN2C(=O)[C@H](CCc2cc(F)c(C(F)(F)F)c(F)c2)NC(=O)CN(C)C(=O)[C@H](Cc2ccc(C(F)(F)F)cc2)N2CC/C=C\C[C@@H](C2=O)N(C)C(=O)CN(C)C1=O [PP1682]	A (a compound having 10 or more and less than 20 is denoted as A)	AA (a compound having 20 or more is denoted as AA)
